What all share (experiment): growth of human tumour cells (NCI), 48 h
Test [1] has as its system EKVX NSCLC.
For test [2], the system named is NCI/ADR-RES ovarian.
Test [3] relates to RXF 393 renal.
In test [4] the test system is OVCAR-8 ovarian.
The subject of test [5] is UO-31 renal.
The subject of test [6] is SK-MEL-28 melanoma.
The subject of test [7] is HCC-2998 colon.
In test [8] the test system is A549 NSCLC.
For test [9], the system named is MDA-N.
In test [10] the test system is BT-549 breast.
The subject of test [11] is HS 578T breast.

Structures are written as SMILES. Where “and” joins values, the source holds several entries; their conditions need not be identical. Equal entries are not always repeated.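 Grown in 96-well plates, cells were treated for 48 hours with each compound at five concentrations. Insufficient inhibition: endpoint recorded as highest concentration tested. GI50 marks 50% less growth. TGI is the concentration that stops growth completely.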

With `O=c1oc2cc(O)ccc2c2oc3cc(O)ccc3c12`, the TGI in test [1] was greater than 125 µM; in test [2] it was greater than 125 µM; in test [3], 124 µM; in [4], greater than 125 µM; in [5], greater than 117 µM; in test [6] it was greater than 125 µM. In addition, the values for the TGI in test [7] and in test [8] were greater than 118 µM and 125 µM, respectively.

Turning to `CC(=O)OCC1=CC2OC(=O)C3=COC(OC4OC(CO)C(O)C(O)C4O)C1C32` (stereo not given), the TGI in [1], in [2], in test [4], in test [9], in test [5] and in test [6] was greater than 100 µM each time. In addition, the TGI in [10], in [7], in test [11] and in [8] was greater than 100 µM throughout.

`C1=CC=C2NCCc3cccc(c3)CCNC3=CC=CC=CC3=NCCCCCCN=C2C=C1`: the TGI in [1] is greater than 100 µM; in test [3], 32.4 µM; in test [4], 61.6 µM; in [5] it was 89.1 µM; in test [8], greater than 100 µM.

For `COc1nc2ccc(CNc3ccc(C(=O)NC(CCC(=O)O)C(=O)O)cc3)cc2nc1OC` (stereo not given), the TGI in [1], in test [2], in test [3], in test [4], in test [9] and in test [5] was greater than 100 µM in each case. Besides, the TGI in test [6], in test [10], in test [7], in test [11] and in test [8] was greater than 100 µM throughout.

Turning to `CC(=O)OC12CC[N+]3(C)CCCCC3C1=Nc1ccccc12` (stereo not given), the TGI in test [1], in [2], in [3], in test [4], in test [9] and in test [5] was greater than 100 µM in each case. In addition, the TGI in [6], in [10], in test [11] and in test [8] was greater than 100 µM throughout.

In the case of `N#Cc1ccc([N+](=O)[O-])cc1NC(N)=S`, the TGI in test [1], in [4], in [5], in test [6], in test [7] and in test [8] was greater than 100 µM throughout.

Turning to `COc1cc2c3c(n(CCCn4cncn4)c(=O)c2cc1OC)-c1cc2c(cc1C3=O)OCO2`, the GI50 in [1] is greater than 84.1 µM; in test [2] it was 1.55 µM; in [3] it was 11.9 µM; in [5], 0.0913 µM; in test [6], greater than 100 µM; in test [10], 31.1 µM. The results for the GI50 in [7], in test [11] and in test [8] were 16.6 µM, greater than 73.6 µM and 16.3 µM, respectively. Moreover, the TGI in test [1], in [2], in test [3], in [4], in test [5] and in test [6] was greater than 100 µM in each case. Also, the TGI in test [10], in test [7], in test [11] and in [8] was greater than 100 µM in each case.

In the case of `CCCCC(=O)c1c(O)ccc2c(C)cc(=O)oc12`, the TGI in [1], in [2], in [3], in test [4], in test [9] and in [5] was greater than 100 µM in each case. The TGI in [6], in test [10], in test [7], in test [11] and in test [8] was greater than 100 µM in each case.

On to `CCOc1ccccc1Nc1ccc(N)cc1S(=O)(=O)O`, for which the TGI in test [1], in test [2], in test [3], in test [9], in [5] and in test [6] was greater than 100 µM throughout. The TGI in test [10], in test [7], in test [11] and in [8] was greater than 100 µM throughout.

As to `COc1ccc(C(=O)CCN(C)C)c2ccccc12`, the TGI is 55.8 µM in test [1]; greater than 100 µM in [2]; 41.9 µM in [3]; 40.5 µM in test [4]; 50.5 µM in test [9]; 44.2 µM in test [5]. The TGI in test [6] is 60.3 µM; in test [10], 37.6 µM; in test [7], 36 µM; in test [11], 57 µM; in test [8], greater than 100 µM.

Consider `CC1(O)C2(c3ccccc3)CCC[N+]1(C)CC2` (stereo not given), for which the TGI in test [2], in [3], in test [4], in test [9], in test [5] and in test [6] was greater than 100 µM each time. The TGI in test [10], in test [7] and in [11] was greater than 100 µM in each case.

Regarding `CC[C@@]1(O)C[C@H](OC2CC(N(C)C)C(OC3CC(O)C(OC4CCC(=O)C(C)O4)C(C)O3)C(C)O2)c2c(cc3c(c2O)C(=O)c2c(O)cccc2C3=O)C1C(=O)OC` (stereo not given in full), the TGI was 3.02 µM and 1.35 µM in test [1]; 0.673 µM in [2]; 0.157 µM in [3]; 0.679 µM and 4.49 µM in test [4]; 0.149 µM in test [9]; 0.215 µM and 0.806 µM in [6]. Further, the TGI in [7] is 0.598 µM and 1.88 µM; in test [11] it was 0.618 µM.

`Nc1nc(SCCNC(=O)CCc2ccc(O)c(I)c2)nc2c1ncn2C1OC(CO)C(O)C1O` (stereo not given): the TGI in [1], in test [3], in test [4], in [6], in test [7] and in [8] was greater than 100 µM each time.

Consider `[C-]#[N+]C(=C\c1ccc(O)cc1)/C(=C/c1ccc(O)cc1)[N+]#[C-]`, for which the TGI was greater than 100 µM in test [1]; greater than 24.5 µM in [2]; 4.46 µM in test [3]; greater than 20.5 µM in test [4]; 3.35 µM in [9]; greater than 22.4 µM in test [6]. Besides, the TGI in test [10] was greater than 23.1 µM; in test [7] it was greater than 50.6 µM; in test [8], greater than 69.9 µM.

With `O=C1CCCCN1`, the TGI in test [1] is greater than 350 µM; in test [2], greater than 707 µM; in [3], greater than 1120 µM; in test [4], greater than 1120 µM; in [5], greater than 1120 µM; in [6], greater than 1120 µM. The TGI in test [7] and in test [8] was greater than 1120 µM each time.

Regarding `C=CCn1c(=O)c(Br)nn(CCOCP(=O)(OCC)OCC)c1=O`, the TGI in [1], in test [2], in test [3], in test [4], in test [9] and in test [5] was greater than 100 µM each time. The TGI in [6], in [7], in [11] and in test [8] was greater than 100 µM in each case.

Consider `CC(C)CNCCc1ccccn1`, for which the TGI in test [1], in test [2], in test [3], in test [4], in test [9] and in test [5] was greater than 100 µM in each case. Further, the TGI in test [6], in test [10], in [7], in test [11] and in test [8] was greater than 100 µM each time.

`O=Cc1ccccc1CCn1c(=O)c2cc3c(=O)n(CCc4ccccc4C=O)c(=O)c3cc2c1=O`: the TGI in [3], in test [4], in [5], in test [6] and in test [8] was greater than 100 µM throughout.

As to `CC(C)C1=CC2=CC[C@@H]3[C@](C)(CCC[C@@]3(C)C(=O)O)[C@H]2CC1`, the TGI is greater than 89.3 µM in test [1]; 97.4 µM in [3]; greater than 100 µM in [4]; greater than 82.7 µM in test [5]; greater than 100 µM in test [6]; greater than 100 µM in test [7]. The TGI in [8] is greater than 100 µM.

As for `CN1c2c(nc(N)[nH]c2=O)NCC1CCNc1ccc(C(=O)NC(CCC(=O)O)C(=O)O)cc1` (stereo not given), the TGI in test [1] was found to be 2720 µM; in [2] it was 3810 µM; in test [3] it was 2490 µM; in test [4] it was 2640 µM; in test [9], 430 µM; in [5], 2590 µM. The TGI was 2290 µM in [6]; 2750 µM in test [10]; 2080 µM in test [7]; 5910 µM in test [11]; 2620 µM in test [8].

As for `CC1=C(SCCO)C(=O)c2ccccc2C1=O`, the TGI in [1] was found to be 27.5 µM; in test [2] it was 31.9 µM; in test [3], 26.3 µM; in test [4] it was 28.6 µM; in test [9], 15.6 µM; in test [5], 20.3 µM. Further, the TGI in test [6] is 25.9 µM; in [10], 31.7 µM; in test [7] it was 30.4 µM; in [11], 40.4 µM; in [8], 32.8 µM.

As for `c1ccc(SCCc2ccncc2)cc1`, the TGI in test [1], in test [2], in [3], in test [4], in [9] and in test [5] was greater than 100 µM each time. The TGI in test [6], in test [10], in [7], in test [11] and in test [8] was greater than 100 µM in each case.

On to `CC(=O)OCCCCN1C(=O)CSc2ccccc21`, for which the TGI in [1], in test [3], in test [9], in test [5], in test [6] and in [10] was greater than 100 µM in each case. Also, the TGI in test [11] and in test [8] was greater than 100 µM throughout.
